# Reference: patent US20200339625A1, “NOVEL RADIOMETAL-BINDING COMPOUNDS FOR DIAGNOSIS OR TREATMENT OF PROSTATE SPECIFIC MEMBRANE ANTIGEN-EXPRESSING CANCER” (PROVINCIAL HEALTH SERVICES AUTHORITY, priority 2017, published 2020)
# Tests used:
# [1] = test system: mice bearing PSMA-expressing LNCAP cancer xenografts; test: Biodistribution of 68Ga-labeled compounds; assay type: in vivo
# Method: (§1) Imaging and biodistribution experiments were performed using NODSCID 1L2RyKO male mice. Mice were anesthetized by inhalation with 2% isoflurane in oxygen, and implanted subcutaneously with 1×10^7 LNCaP cells behind left shoulder. Mice were imaged or used in biodistribution studies when the tumor grew up to reach 5-8 mm in diameter during 5-6 weeks.
# For biodistribution studies, the mice were injected with the radiotracer as described above. At predetermined time points (1 or 3 h), the mice was anesthetized with 2% isoflurane inhalation, and euthanized by CO2 inhalation. Blood was withdrawn immediately from the heart, and the organs/tissues of interest were collected. The collected organs/tissues were weighed and counted using an automatic gamma counter. The uptake in each organ/tissue was normalized to the injected dose using a standard curve, and expressed as the percentage of the injected dose per gram of tissue (% ID/g).
# [2] = test system: mice bearing LNCaP tumor xenografts; test: PET/CT imaging of 68Ga-labeled compounds; assay type: in vivo; conditions: PET/CT images; for tumor uptake (qualitative comparison): compounds of FIG. 13
# Method: 2.17 PET/CT Imaging and Biodistribution
# as §1
# PET imaging experiments were conducted using Siemens Inveon micro PET/CT scanner. Each tumor bearing mouse was injected 6-8 MBq of 68Ga-labeled tracer through the tail vein under anesthesia (2% isoflurane in oxygen). The mice were allowed to recover and roam freely in their cage. After 50 min, the mice were sedated again with 2% isoflurane in oxygen inhalation and positioned in the scanner. A 10-min CT scan was conducted first for localization and attenuation correction after segmentation for reconstructing the PET images. Then, a 10-min static PET imaging was performed to determined uptake in tumor and other organs. The mice were kept warm by a heating pad during acquisition. For imaging studies acquired at 3 h post-injection (p.i.), the mice were placed in the micro PET/CT scanner at 170 min p.i. Then, the CT acquisitions were conducted as described above, a 15-min static PET imaging was performed to determined uptake in tumor and other organs.
smiles,measurement,setting,value
CCCCCCC(NC(=O)C1CCC(CNC(=O)CN2CCN(CC(=O)[O-])CCN(CC(=O)[O-])CCN(CC(=O)[O-])CC2)CC1)C(=O)NCCCCC(NC(=O)NC(CCC(=O)O)C(=O)O)C(=O)O.[68Ga+3] (centres unmarked) [^68Ga-HTK03026],Adrenal glands uptake,[1]; 1 h post-injection,1.84 ± 0.95 % ID/g
same,Blood uptake,[1]; 1 h post-injection,0.70 ± 0.19 % ID/g
same,Bone uptake,[1]; 1 h post-injection,0.54 ± 0.20 % ID/g
same,Brain uptake,[1]; 1 h post-injection,0.06 ± 0.02 % ID/g
same,Fat uptake,[1]; 1 h post-injection,0.45 ± 0.11 % ID/g
same,Heart uptake,[1]; 1 h post-injection,0.30 ± 0.06 % ID/g
same,Intestine uptake,[1]; 1 h post-injection,0.29 ± 0.06 % ID/g
same,Kidneys uptake,[1]; 1 h post-injection,68.5 ± 28.2 % ID/g
same,Lacrimal uptake,[1]; 1 h post-injection,1.33 ± 0.90 % ID/g
same,Liver uptake,[1]; 1 h post-injection,0.24 ± 0.06 % ID/g
same,Lungs uptake,[1]; 1 h post-injection,0.82 ± 0.26 % ID/g
same,Muscle uptake,[1]; 1 h post-injection,0.28 ± 0.13 % ID/g
same,Pancreas uptake,[1]; 1 h post-injection,0.71 ± 1.04 % ID/g
same,Salivary uptake,[1]; 1 h post-injection,0.83 ± 0.22 % ID/g
same,Seminal uptake,[1]; 1 h post-injection,0.43 ± 0.31 % ID/g
same,Spleen uptake,[1]; 1 h post-injection,1.34 ± 0.54 % ID/g
same,Stomach uptake,[1]; 1 h post-injection,0.10 ± 0.03 % ID/g
same,Tail uptake,[1]; 1 h post-injection,0.90 ± 0.56 % ID/g
same,Testes uptake,[1]; 1 h post-injection,0.35 ± 0.22 % ID/g
same,Thyroid uptake,[1]; 1 h post-injection,0.35 ± 0.08 % ID/g
same,Tumor uptake,[1]; 1 h post-injection,12.5 ± 2.90 % ID/g
same,Tumor:Blood ratio,[1]; 1 h post-injection,18.6 ± 5.54
same,Tumor:Muscle ratio,[1]; 1 h post-injection,52.8 ± 24.9
same,Tumor:kidney ratio,[1]; 1 h post-injection,0.22 ± 0.15
same,Urine uptake,[1]; 1 h post-injection,575 ± 245 % ID/g
same,excretion pathway,[2],excreted mainly via the renal pathway
same,tumor uptake (qualitative comparison),[2],comparable
O=C([O-])CN1CCN(CC(=O)[O-])CCN(CC(=O)NCC2CCC(C(=O)NC(Cc3ccc4cc5ccccc5cc4c3)C(=O)NCCCCC(NC(=O)NC(CCC(=O)O)C(=O)O)C(=O)O)CC2)CCN(CC(=O)[O-])CC1.[68Ga+3] (centres unmarked) [^68Ga-HTK03027],Adrenal glands uptake,[1]; 1 h post-injection,3.55 ± 2.33 % ID/g
same,Blood uptake,[1]; 1 h post-injection,1.56 ± 0.57 % ID/g
same,Bone uptake,[1]; 1 h post-injection,0.70 ± 0.33 % ID/g
same,Brain uptake,[1]; 1 h post-injection,0.06 ± 0.03 % ID/g
same,Fat uptake,[1]; 1 h post-injection,1.03 ± 0.67 % ID/g
same,Heart uptake,[1]; 1 h post-injection,0.56 ± 0.24 % ID/g
same,Intestine uptake,[1]; 1 h post-injection,0.44 ± 0.12 % ID/g
same,Kidneys uptake,[1]; 1 h post-injection,85.6 ± 73.5 % ID/g
same,Lacrimal uptake,[1]; 1 h post-injection,1.00 ± 0.56 % ID/g
same,Liver uptake,[1]; 1 h post-injection,0.46 ± 0.10 % ID/g
same,Lungs uptake,[1]; 1 h post-injection,1.66 ± 0.67 % ID/g
same,Muscle uptake,[1]; 1 h post-injection,0.48 ± 0.37 % ID/g
same,Pancreas uptake,[1]; 1 h post-injection,0.57 ± 0.20 % ID/g
same,Salivary uptake,[1]; 1 h post-injection,1.86 ± 0.91 % ID/g
same,Seminal uptake,[1]; 1 h post-injection,10.6 ± 10.9 % ID/g
same,Spleen uptake,[1]; 1 h post-injection,3.36 ± 2.54 % ID/g
same,Stomach uptake,[1]; 1 h post-injection,0.17 ± 0.10 % ID/g
same,Tail uptake,[1]; 1 h post-injection,0.98 ± 0.38 % ID/g
same,Testes uptake,[1]; 1 h post-injection,0.56 ± 0.18 % ID/g
same,Thyroid uptake,[1]; 1 h post-injection,0.76 ± 0.33 % ID/g
same,Tumor uptake,[1]; 1 h post-injection,13.3 ± 5.44 % ID/g
same,Tumor:Blood ratio,[1]; 1 h post-injection,8.57 ± 2.83
same,Tumor:Muscle ratio,[1]; 1 h post-injection,35.0 ± 18.7
same,Tumor:kidney ratio,[1]; 1 h post-injection,0.27 ± 0.20
same,Urine uptake,[1]; 1 h post-injection,844 ± 645 % ID/g
same,excretion pathway,[2],excreted mainly via the renal pathway
same,tumor uptake (qualitative comparison),[2],comparable
O=C([O-])CN1CCN(CC(=O)[O-])CCN(CC(=O)NCC2CCC(C(=O)NC(Cc3ccc4ccc5cccc6ccc3c4c56)C(=O)NCCCCC(NC(=O)NC(CCC(=O)O)C(=O)O)C(=O)O)CC2)CCN(CC(=O)[O-])CC1.[68Ga+3] (centres unmarked) [^68Ga-HTK03029],Adrenal glands uptake,[1]; 1 h post-injection,4.91 ± 1.57 % ID/g
same,Blood uptake,[1]; 1 h post-injection,3.93 ± 0.91 % ID/g
same,Bone uptake,[1]; 1 h post-injection,0.92 ± 0.14 % ID/g
same,Brain uptake,[1]; 1 h post-injection,0.09 ± 0.02 % ID/g
same,Fat uptake,[1]; 1 h post-injection,1.57 ± 0.42 % ID/g
same,Heart uptake,[1]; 1 h post-injection,1.25 ± 0.27 % ID/g
same,Intestine uptake,[1]; 1 h post-injection,0.77 ± 0.11 % ID/g
same,Kidneys uptake,[1]; 1 h post-injection,198 ± 49.3 % ID/g
same,Lacrimal uptake,[1]; 1 h post-injection,1.06 ± 0.49 % ID/g
same,Liver uptake,[1]; 1 h post-injection,1.32 ± 0.63 % ID/g
same,Lungs uptake,[1]; 1 h post-injection,3.59 ± 0.69 % ID/g
same,Muscle uptake,[1]; 1 h post-injection,0.63 ± 0.10 % ID/g
same,Pancreas uptake,[1]; 1 h post-injection,0.94 ± 0.18 % ID/g
same,Salivary uptake,[1]; 1 h post-injection,3.27 ± 1.02 % ID/g
same,Seminal uptake,[1]; 1 h post-injection,6.74 ± 10.7 % ID/g
same,Spleen uptake,[1]; 1 h post-injection,7.08 ± 5.08 % ID/g
same,Stomach uptake,[1]; 1 h post-injection,0.31 ± 0.08 % ID/g
same,Tail uptake,[1]; 1 h post-injection,2.18 ± 0.65 % ID/g
same,Testes uptake,[1]; 1 h post-injection,1.02 ± 0.13 % ID/g
same,Thyroid uptake,[1]; 1 h post-injection,1.57 ± 0.32 % ID/g
same,Tumor uptake,[1]; 1 h post-injection,13.9 ± 6.58 % ID/g
same,Tumor:Blood ratio,[1]; 1 h post-injection,3.39 ± 1.01
same,Tumor:Muscle ratio,[1]; 1 h post-injection,21.3 ± 7.50
same,Tumor:kidney ratio,[1]; 1 h post-injection,0.07 ± 0.02
same,Urine uptake,[1]; 1 h post-injection,175 ± 178 % ID/g
same,excretion pathway,[2],excreted mainly via the renal pathway
same,tumor uptake (qualitative comparison),[2],comparable
O=C([O-])CN1CCN(CC(=O)[O-])CCN(CC(=O)NCC2CCC(C(=O)NC(Cc3c4ccccc4cc4ccccc34)C(=O)NCCCCC(NC(=O)NC(CCC(=O)O)C(=O)O)C(=O)O)CC2)CCN(CC(=O)[O-])CC1.[68Ga+3] (centres unmarked) [^68Ga-HTK03041],Adrenal glands uptake,[1]; 1 h post-injection,8.90 ± 2.56 % ID/g
same,Blood uptake,[1]; 1 h post-injection,1.43 ± 0.30 % ID/g
same,Bone uptake,[1]; 1 h post-injection,1.29 ± 0.45 % ID/g
same,Brain uptake,[1]; 1 h post-injection,0.10 ± 0.05 % ID/g
same,Fat uptake,[1]; 1 h post-injection,2.06 ± 0.59 % ID/g
same,Heart uptake,[1]; 1 h post-injection,1.82 ± 0.21 % ID/g
same,Intestine uptake,[1]; 1 h post-injection,1.14 ± 0.18 % ID/g
same,Kidneys uptake,[1]; 1 h post-injection,170 ± 26.4 % ID/g
same,Lacrimal uptake,[1]; 1 h post-injection,2.44 ± 1.79 % ID/g
same,Liver uptake,[1]; 1 h post-injection,1.38 ± 0.25 % ID/g
same,Lungs uptake,[1]; 1 h post-injection,4.32 ± 0.62 % ID/g
same,Muscle uptake,[1]; 1 h post-injection,0.75 ± 0.09 % ID/g
same,Pancreas uptake,[1]; 1 h post-injection,1.47 ± 0.16 % ID/g
same,Salivary uptake,[1]; 1 h post-injection,4.99 ± 0.88 % ID/g
same,Seminal uptake,[1]; 1 h post-injection,1.03 ± 0.27 % ID/g
same,Spleen uptake,[1]; 1 h post-injection,8.95 ± 3.22 % ID/g
same,Stomach uptake,[1]; 1 h post-injection,0.41 ± 0.11 % ID/g
same,Tail uptake,[1]; 1 h post-injection,1.36 ± 0.45 % ID/g
same,Testes uptake,[1]; 1 h post-injection,1.34 ± 0.22 % ID/g
same,Thyroid uptake,[1]; 1 h post-injection,2.48 ± 0.44 % ID/g
same,Tumor uptake,[1]; 1 h post-injection,23.1 ± 6.11 % ID/g
same,Tumor:Blood ratio,[1]; 1 h post-injection,17.3 ± 7.24
same,Tumor:Muscle ratio,[1]; 1 h post-injection,31.6 ± 12.1
same,Tumor:kidney ratio,[1]; 1 h post-injection,0.14 ± 0.04
same,Urine uptake,[1]; 1 h post-injection,173 ± 93.01 % ID/g
same,Adrenal glands uptake,[1]; 3 h post-injection,4.04 ± 1.20 % ID/g
same,Blood uptake,[1]; 3 h post-injection,0.83 ± 0.27 % ID/g
same,Bone uptake,[1]; 3 h post-injection,0.98 ± 0.40 % ID/g
same,Brain uptake,[1]; 3 h post-injection,0.06 ± 0.02 % ID/g
same,Fat uptake,[1]; 3 h post-injection,1.06 ± 0.20 % ID/g
same,Heart uptake,[1]; 3 h post-injection,0.93 ± 0.17 % ID/g
same,Intestine uptake,[1]; 3 h post-injection,0.67 ± 0.09 % ID/g
same,Kidneys uptake,[1]; 3 h post-injection,121 ± 37.6 % ID/g
same,Lacrimal uptake,[1]; 3 h post-injection,2.82 ± 3.84 % ID/g
same,Liver uptake,[1]; 3 h post-injection,0.82 ± 0.15 % ID/g
same,Lungs uptake,[1]; 3 h post-injection,2.14 ± 0.39 % ID/g
same,Muscle uptake,[1]; 3 h post-injection,0.40 ± 0.06 % ID/g
same,Pancreas uptake,[1]; 3 h post-injection,0.71 ± 0.12 % ID/g
same,Salivary uptake,[1]; 3 h post-injection,2.11 ± 0.57 % ID/g
same,Seminal uptake,[1]; 3 h post-injection,4.56 ± 9.00 % ID/g
same,Spleen uptake,[1]; 3 h post-injection,4.19 ± 1.58 % ID/g
same,Stomach uptake,[1]; 3 h post-injection,0.26 ± 0.06 % ID/g
same,Tail uptake,[1]; 3 h post-injection,0.86 ± 0.73 % ID/g
same,Testes uptake,[1]; 3 h post-injection,0.89 ± 0.12 % ID/g
same,Thyroid uptake,[1]; 3 h post-injection,1.19 ± 0.23 % ID/g
same,Tumor uptake,[1]; 3 h post-injection,28.2 ± 9.17 % ID/g
same,Tumor:Blood ratio,[1]; 3 h post-injection,36.6 ± 15.4
same,Tumor:Muscle ratio,[1]; 3 h post-injection,73.8 ± 30.9
same,Tumor:kidney ratio,[1]; 3 h post-injection,0.26 ± 0.13
same,Urine uptake,[1]; 3 h post-injection,171 ± 93.3 % ID/g
same,change of tumor uptake from 1 h to 3 h post-injection,[2],increases from 1 h to 3 h post-injection
same,excretion pathway,[2],excreted mainly via the renal pathway
same,tumor uptake (qualitative comparison),[2],highest tumor uptake
